Results published in patent US20120016119A1, “NOVEL PYRROLO(2,3-d)PYRIMIDINE COMPOUND” (priority 2009, published 2012).

Tests used:
human GPR119 = target: T1, human GPR119 (Homo sapiens, UniProt Q8TDV5); assay: GPR119 agonistic activity: cAMP production in human GPR119-expressed CHO cells (HTRF cAMP kit); format: cell-based; conditions: human GPR119-expressed CHO cells (L8-18), 37° C. for 30 minutes, 500 μM IBMX
T1 construct: expressed in transfected cells; host or cells: CHO cells (LM-3 mock cells carrying luciferase reporter pLG3-CRE6-CRE-VIP); resulting line L8-18
T1 sequence (Q8TDV5 1-335): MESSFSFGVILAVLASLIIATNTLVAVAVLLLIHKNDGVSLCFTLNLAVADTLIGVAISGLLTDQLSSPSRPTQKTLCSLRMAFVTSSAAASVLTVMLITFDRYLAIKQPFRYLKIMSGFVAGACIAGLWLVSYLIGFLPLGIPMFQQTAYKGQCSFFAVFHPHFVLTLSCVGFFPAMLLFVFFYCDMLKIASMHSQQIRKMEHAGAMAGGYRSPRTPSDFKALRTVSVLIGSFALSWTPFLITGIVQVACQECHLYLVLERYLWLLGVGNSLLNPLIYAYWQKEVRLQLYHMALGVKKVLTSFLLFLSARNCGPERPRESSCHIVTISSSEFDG
Protocol: The present experiment is directed to evaluate GPR119 agonistic activity (in vitro) of test compounds by adding the compounds to human GPR119-expressed CHO cells to determine cAMP production of the cells.
Human GPR119-expressed CHO cells (L8-18) were prepared by introducing an expression vector pMSF1-GPR119 (Geneticin-resistance) carrying human GPR119 genes into CHO cells (LM-3; Mock cells) wherein lusiferase expression vector pLG3-CRE6-CRE-VIP (Hygromycin B-resistance) were introduced according to the known method (The Journal of Biological Chemistry Vol. 274 (34), pp. 23940-23947).
Cryopreserved L8-18 cells were melted, and then suspended into 9-fold amounts of assay buffer and centrifuged (1000 rpm, 5 minutes) at room temperature. The supernatant was removed, and then the precipitated cells were resuspended into assay buffer (4 mL). Thereto was added assay buffer which contained IBMX (manufactured by Sigma, #17018-1G), and 7.5×10^4 cells/mL of cell suspension was prepared. The cell suspension was let stand at room temperature for 15 minutes, and then to each well of 96 half well white plate (manufactured by Corning Incorporated, #3693) were added the cell suspension (20 μL) and a solution of a test compound or AR231453 (5 μL; a total of 25 (final concentration: 1500 cells/well, 500 μM IBMX, 1% dimethylsulfoxide). The mixture was incubated at 37° C. for 30 minutes, and then to each well were added a 20-fold diluted solution (each 12.5 μL/well) of cAMP-d2 and Anti cAMP-Cryptate of HTRF cAMP kit (manufactured by Cisbio, #62AM4PEC). The mixture was stirred, and then was let stand for 1 hour under light shielding. A fluorescence intensity was measured by time-resolved fluorescence mode (Ex: 320 nm, Em: 665 nm, 620 nm) of Microplate Reader (ARVO or SpectraMax M5e). In ARVO, Ratios [Ratio=(665 nm/620 nm)×10^4)] of cAMP-d2 to Anti cAMP-Cryptate were calculated from the resulting fluorescence intensity, and cAMP concentrations of each well were calculated from cAMP standard curve prepared by the Ratios and GraphPad Prism. In SpectraMax M5e, cAMP concentrations of each well were calculated on the basis of a standard curve prepared by the resulting fluorescence intensity and Softmax Pro.
EC50 of test compounds were calculated by GraphPad Prism.

C57BL/6N male mice = assay: Inhibitory effect on increased blood glucose after oral glucose load in fasted mice; format: in vivo; conditions: one hour before glucose load (3 g/kg, p.o.), C57BL/6N male mice fasted 21 hours
Protocol: C57BL/6N male mice was fasted for 21 hours, and then a stratified randomization allocation was carried out by EXSUS Ver7.6 NP (Arm Systex Co., Ltd.) based on body weights (n=8). Vehicle (solvent: 0.1% Tween 80/0.5% hydroxypropyl methylcellulose) (control group) or a suspended solution of a test compound in the vehicle (test compound group) was orally administered to the mice, and a glucose load (3 g/kg, p.o.) was carried out one hour after administration of a test compound. Blood samplings from the test mice were carried out at each time point of just before administration of drug (−60 min), immediately before glucose load (0 min), 30 minutes (30 min), 60 minutes (60 min) and 120 minutes (120 min) after glucose load. Blood glucose levels at each time point were measured by glucose CII-Test Wako (manufactured by Wako Pure Chemical Industries, Ltd.), AUC (0-120 min) was calculated in each administration group on the basis of the measured value, and evaluated by time-dependent variance analysis and Student's t-Test using EXSUS Ver7.6NP (Arm Systex Co., Ltd.).
An inhibitory effect on increased blood glucose of each test compound (A ratio value of AUC (0-120 min) of the test compound group in case that AUC (0-120 min) of the control group is 100) is shown in the following Table 36.

| SMILES | EC50 (human GPR119) [nM] | Inhibitory Effect on Increased Blood Glucose (ratio value of AUC (0-120 min) of test compound group, control group = 100) (C57BL/6N male mice; 10 mg/kg orally) | Inhibitory Effect on Increased Blood Glucose (ratio value of AUC (0-120 min) of test compound group, control group = 100) (C57BL/6N male mice; 3 mg/kg orally) |
| --- | --- | --- | --- |
| CCc1cnc(N2CCC(n3cc(F)c4c(Nc5ccc(C(=O)N(C)CCCO)cc5F)ncnc43)CC2)nc1 [Example Compound 63] | < 1000 | 89 | – |
| CC(C)Oc1cnc(N2CCC(n3cc(F)c4c(Nc5ccc(C(=O)N(C)CCO)cc5F)ncnc43)CC2)nc1 [Example Compound 153] | < 1000 | – | 84 |
